PubChem BioAssay (NCI)
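96-well plates; 48 h exposure; 5 concentrations. Endpoints by linear interpolation between flanking doses. Not reached: highest tested concentration assigned. Definition used: TGI = concentration required for complete inhibition of growth.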

Assays:
Experiment in all cases: inhibition of tumour cell growth, NCI panel, 48 h
[1] = tested on: NCI-H23 lung
[2] = tested on: IGROV1 ovarian
[3] = tested on: HT29 colon
[4] = tested on: MDA-MB-231 breast
[5] = tested on: SK-OV-3 ovarian
[6] = tested on: COLO 205 colon
[7] = tested on: OVCAR-3 ovarian
[8] = tested on: CAKI-1 renal
[9] = tested on: HCT-15 colon
[10] = tested on: ACHN renal
[11] = tested on: RPMI-8226 leukemia
[12] = tested on: K-562 leukemia
[13] = tested on: HCT-116 colon
[14] = tested on: SF-539 CNS
[15] = tested on: UO-31 renal
[16] = tested on: NCI-H522 lung
[17] = tested on: 786-0 renal
[18] = tested on: M14 melanoma
[19] = tested on: A549 NSCLC
[20] = tested on: SNB-19 CNS
[21] = tested on: A498 renal
[22] = tested on: CCRF-CEM leukemia
[23] = tested on: OVCAR-5 ovarian
[24] = tested on: HS 578T breast
[25] = tested on: TK-10 renal
[26] = tested on: SF-295 CNS
[27] = tested on: SK-MEL-5 melanoma
[28] = tested on: MDA-N
[29] = tested on: KM12 colon
[30] = tested on: MDA-MB-435
[31] = tested on: SF-268 CNS
[32] = tested on: U251 CNS
[33] = tested on: OVCAR-8 ovarian
[34] = tested on: SR leukemia
[35] = tested on: SK-MEL-2 melanoma
[36] = tested on: PC-3 prostate
[37] = tested on: UACC-62 melanoma
[38] = tested on: DU-145 prostate
[39] = tested on: T-47D breast
[40] = tested on: NCI/ADR-RES ovarian
[41] = tested on: MOLT-4 leukemia
[42] = tested on: SN12C renal
[43] = tested on: MCF7 breast
[44] = tested on: UACC-257 melanoma
[45] = tested on: HL-60(TB) leukemia
[46] = tested on: HOP-62 NSCLC
[47] = tested on: NCI-H226 lung
[48] = tested on: NCI-H460 lung
[49] = tested on: HOP-92 NSCLC
[50] = tested on: SW-620 colon
[51] = tested on: LOX IMVI melanoma
[52] = tested on: BT-549 breast
[53] = tested on: HCC-2998 colon
[54] = tested on: SK-MEL-28 melanoma
[55] = tested on: SNB-75 CNS
[56] = tested on: RXF 393 renal
[57] = tested on: OVCAR-4 ovarian
[58] = tested on: EKVX NSCLC
[59] = tested on: MALME-3M melanoma

Compound: C=C1C(=O)O[C@H]2C(=O)[C@H](C)CCC/C(C)=C/CC[C@@]3(C)O[C@@H]3C[C@@H]12
- TGI [1]: 29.3 µM
- TGI [2]: 10.2 µM
- TGI [3]: 10.6 µM
- TGI [4]: 23.3 µM
- TGI [5]: 30.3 µM
- TGI [6]: 3.54 µM
- TGI [7]: 3.52 µM
- TGI [8]: 3.23 µM
- TGI [9]: 3.12 µM
- TGI [10]: 2.63 µM
- TGI [11]: 4.79 µM
- TGI [12]: 10.2 µM
- TGI [13]: 2.26 µM
- TGI [14]: 6.63 µM
- TGI [15]: 3.18 µM
- TGI [16]: 4.06 µM
- TGI [17]: 3.02 µM
- TGI [18]: 3.28 µM
- TGI [19]: 21.4 µM
- TGI [20]: 24.1 µM
- TGI [21]: 32.8 µM
- TGI [22]: 4.18 µM
- TGI [23]: 18.9 µM
- TGI [24]: 28.4 µM
- TGI [25]: 1.65 µM
- TGI [26]: 27.3 µM
- TGI [27]: 20.7 µM
- TGI [28]: 11.5 µM
- TGI [29]: 22.3 µM
- TGI [30]: 5.82 µM
- TGI [31]: 16.4 µM
- TGI [32]: 13.3 µM
- TGI [33]: 3.59 µM
- TGI [34]: 10.5 µM
- TGI [35]: 20.9 µM
- TGI [36]: 21.2 µM
- TGI [37]: 16.8 µM
- TGI [38]: 11.1 µM
- TGI [39]: 4.35 µM
- TGI [40]: 40.5 µM
- TGI [41]: 4.72 µM
- TGI [42]: 18.3 µM
- TGI [43]: 15 µM
- TGI [44]: 11.7 µM
- TGI [45]: 6.8 µM
- TGI [46]: 24.3 µM
- TGI [47]: 33.3 µM
- TGI [48]: 30.8 µM
- TGI [49]: 2.99 µM
- TGI [50]: 3.54 µM
- TGI [51]: 3.03 µM

Compound: CC(=O)Nc1ccc2cc(C#N)c(=O)[nH]c2n1
- TGI [52]: > 100 µM
- TGI [1]: > 100 µM
- TGI [2]: > 100 µM
- TGI [4]: > 100 µM
- TGI [5]: > 100 µM
- TGI [6]: > 100 µM
- TGI [7]: > 100 µM
- TGI [8]: > 100 µM
- TGI [9]: > 100 µM
- TGI [10]: > 100 µM
- TGI [11]: > 100 µM
- TGI [12]: > 100 µM
- TGI [13]: > 100 µM
- TGI [14]: > 100 µM
- TGI [15]: > 100 µM
- TGI [16]: > 100 µM
- TGI [17]: > 100 µM
- TGI [18]: > 100 µM
- TGI [53]: > 100 µM
- TGI [19]: > 100 µM
- TGI [20]: > 100 µM
- TGI [54]: > 100 µM
- TGI [21]: > 100 µM
- TGI [55]: > 100 µM
- TGI [23]: > 100 µM
- TGI [56]: > 100 µM
- TGI [25]: > 100 µM
- TGI [26]: > 100 µM
- TGI [27]: > 100 µM
- TGI [28]: > 100 µM
- TGI [57]: > 100 µM
- TGI [29]: > 100 µM
- TGI [30]: > 100 µM
- TGI [31]: > 100 µM
- TGI [58]: > 100 µM
- TGI [32]: > 100 µM
- TGI [33]: > 100 µM
- TGI [35]: > 100 µM
- TGI [36]: > 100 µM
- TGI [39]: > 100 µM
- TGI [40]: > 100 µM
- TGI [41]: > 100 µM
- TGI [59]: > 100 µM
- TGI [42]: > 100 µM
- TGI [43]: > 100 µM
- TGI [44]: > 100 µM
- TGI [46]: > 100 µM
- TGI [47]: > 100 µM
- TGI [48]: > 100 µM
- TGI [49]: > 100 µM
- TGI [50]: > 100 µM
- TGI [51]: > 100 µM

Compound: CCOc1cc(CC[N+](C)(C)C)c2c(ccc3ccc(OC)c(OC)c32)c1OC
- TGI [52]: > 100 µM
- TGI [2]: > 100 µM
- TGI [3]: > 100 µM
- TGI [4]: > 100 µM
- TGI [5]: > 100 µM
- TGI [6]: > 100 µM
- TGI [7]: > 100 µM
- TGI [8]: > 100 µM
- TGI [10]: > 100 µM
- TGI [11]: > 100 µM
- TGI [13]: > 100 µM
- TGI [15]: > 100 µM
- TGI [16]: > 100 µM
- TGI [17]: > 100 µM
- TGI [18]: > 100 µM
- TGI [53]: > 100 µM
- TGI [19]: > 100 µM
- TGI [20]: > 100 µM
- TGI [54]: > 100 µM
- TGI [55]: > 100 µM
- TGI [26]: > 100 µM
- TGI [27]: > 100 µM
- TGI [28]: > 100 µM
- TGI [30]: > 100 µM
- TGI [31]: > 100 µM
- TGI [58]: > 100 µM
- TGI [32]: > 100 µM
- TGI [33]: > 100 µM
- TGI [34]: > 100 µM
- TGI [36]: > 100 µM
- TGI [37]: > 100 µM
- TGI [38]: > 100 µM
- TGI [39]: > 100 µM
- TGI [40]: > 100 µM
- TGI [59]: > 100 µM
- TGI [42]: > 100 µM
- TGI [49]: > 100 µM
- TGI [50]: > 100 µM

Compound: COc1ccc(NCc2cccc3c(=O)c4ccc(Cl)cc4oc23)cc1
- TGI [52]: > 100 µM
- TGI [1]: > 100 µM
- TGI [2]: > 100 µM
- TGI [4]: > 100 µM
- TGI [5]: > 100 µM
- TGI [6]: > 100 µM
- TGI [7]: > 100 µM
- TGI [8]: > 100 µM
- TGI [9]: > 100 µM
- TGI [10]: > 100 µM
- TGI [11]: > 100 µM
- TGI [12]: > 100 µM
- TGI [13]: > 100 µM
- TGI [14]: > 100 µM
- TGI [15]: > 100 µM
- TGI [16]: > 100 µM
- TGI [17]: > 100 µM
- TGI [18]: > 100 µM
- TGI [53]: > 100 µM
- TGI [19]: > 100 µM
- TGI [54]: > 100 µM
- TGI [21]: > 100 µM
- TGI [55]: > 100 µM
- TGI [22]: > 100 µM
- TGI [23]: > 100 µM
- TGI [25]: > 100 µM
- TGI [26]: > 100 µM
- TGI [27]: > 100 µM
- TGI [28]: > 100 µM
- TGI [57]: > 100 µM
- TGI [29]: > 100 µM
- TGI [30]: > 100 µM
- TGI [58]: > 100 µM
- TGI [32]: > 100 µM
- TGI [33]: > 100 µM
- TGI [34]: > 100 µM
- TGI [35]: > 100 µM
- TGI [36]: > 100 µM
- TGI [37]: > 100 µM
- TGI [39]: > 100 µM
- TGI [40]: > 100 µM
- TGI [41]: > 100 µM
- TGI [59]: > 100 µM
- TGI [42]: > 100 µM
- TGI [43]: > 100 µM
- TGI [44]: > 100 µM
- TGI [46]: > 100 µM
- TGI [47]: > 100 µM
- TGI [49]: > 100 µM
- TGI [50]: > 100 µM
- TGI [51]: > 100 µM
